Assay results reported in the NIST ThermoML archive (doi:10.1016/j.fluid.2016.10.005).
Numbers after ± are expanded uncertainties.

How the values were obtained:
[1] = molar heat capacity at constant pressure; settings: 101 kPa, Liquid, DSC
[2] = molar heat capacity at constant pressure; mn = molality of the nth substance listed, in mol/kg; settings: 101 kPa, Liquid, DSC, m2 = 0

Row | SMILES | molar heat capacity at constant pressure ([1]; 278.15 K) | molar heat capacity at constant pressure ([1]; 283.15 K) | molar heat capacity at constant pressure ([1]; 288.15 K) | molar heat capacity at constant pressure ([1]; 293.15 K) | molar heat capacity at constant pressure ([1]; 298.15 K) | molar heat capacity at constant pressure ([1]; 308.15 K) | molar heat capacity at constant pressure ([1]; 318.15 K) | molar heat capacity at constant pressure ([1]; 328.15 K) | molar heat capacity at constant pressure ([1]; 333.15 K) | molar heat capacity at constant pressure ([2]; 278.15 K) | molar heat capacity at constant pressure ([2]; 283.15 K) | molar heat capacity at constant pressure ([2]; 288.15 K) | molar heat capacity at constant pressure ([2]; 293.15 K) | molar heat capacity at constant pressure ([2]; 298.15 K) | molar heat capacity at constant pressure ([2]; 308.15 K) | molar heat capacity at constant pressure ([2]; 318.15 K) | molar heat capacity at constant pressure ([2]; 328.15 K) | molar heat capacity at constant pressure ([2]; 333.15 K)
1 | O [water] | 75.75 ± 2.9 J/K/mol | 75.58 ± 2.9 J/K/mol | 75.47 ± 2.9 J/K/mol | 75.39 ± 2.9 J/K/mol | 75.35 ± 2.9 J/K/mol | 75.32 ± 2.9 J/K/mol | 75.34 ± 2.9 J/K/mol | 75.4 ± 2.9 J/K/mol | 75.48 ± 2.9 J/K/mol |  |  |  |  |  |  |  |  | 
2 | O [water] + CCCCCOCCOCCOCCO |  |  |  |  |  |  |  |  |  | 75.75 ± 2.9 J/K/mol | 75.58 ± 2.9 J/K/mol | 75.47 ± 2.9 J/K/mol | 75.39 ± 2.9 J/K/mol | 75.35 ± 2.9 J/K/mol | 75.32 ± 2.9 J/K/mol | 75.34 ± 2.9 J/K/mol | 75.4 ± 2.9 J/K/mol | 75.48 ± 2.9 J/K/mol
3 | CCCCCOCCOCCOCCO [ethanol, 2-[2-[2-(pentyloxy)ethoxy]ethoxy]-] | 471.7 ± 18 J/K/mol | 473.61 ± 18 J/K/mol | 475.62 ± 18 J/K/mol | 477.67 ± 19 J/K/mol | 479.72 ± 19 J/K/mol | 484.23 ± 19 J/K/mol | 489.08 ± 19 J/K/mol | 494.37 ± 19 J/K/mol | 497.05 ± 19 J/K/mol |  |  |  |  |  |  |  |  | 
